According to patent US20100160351A1, “PHARMACEUTICAL COMPOSITIONS AND METHODS FOR TREATING HYPERURICEMIA AND RELATED DISORDERS” (NUON THERAPEUTICS, INC., priority 2008, published 2010):

Tested on: monosodium urate (MSU) crystal-induced air pouch inflammation
Assay: Air Pouch Model 2: MSU crystal air pouch, rodent model of gout
Format: in vivo, male Sprague-Dawley rats
Conditions: for Average Exudate Volume, Mean / Average Plasma Extravasation, OD620 nm, Mean / Total WBC in Sample, Mean / WBC in exudate, Mean: 4 h after MSU
Protocol: The objective of this study was to evaluate the anti-inflammatory potency of Tranilast. This evaluation was carried out in male Sprague-Dawley rats in a rodent model of gout. The animals were injected subcutaneously with 20 ml of sterile air, followed three days later by a supplemental injection with 20 ml of sterile air. Six days after the initial sterile air injection, the rats were injected intravenously with Evan's Blue and pretreated for thirty minutes with oral administration of 25 mg/kg, 50 mg/kg, 100 mg/kg or 200 mg/kg tranilast. After the pretreatment period, the rats were injected with 150 mg of monosodium urate (MSU) crystals (10 mg/ml) into the air pouch. Four hours later, the air pouch was injected with 5 ml heparinized saline and the entire contents of the air pouch removed, recording the total volume. The air pouch contents were evaluated for plasma extravasation and total white blood cell (WBC) count.
(§1) On day 0 the rats were anesthetized in a biological cabinet, the nape of the neck was cleansed with 70% isopropanol followed by iodine tincture (VEDCO, lot L021976). Twenty ml sterile (0.22 μm, Millipore, Cat. SLGSV255F, lot R8J1494130, exp July 2011) air was injected subcutaneously using a 23 G×2 inch needle fixed to a 20 ml syringe. The rats were returned to routine housing. No adverse reactions were observed.
as §1, with “day 3” for “day 0”, “μm, Fisher Scientific,” for “μm, Millipore,”, “Cat. 09-720-3,” for “Cat. SLGSV255F,”, “lot R5SN25683)” for “lot R8J1494130, exp July 2011)”
On day 6 the rats were weighed (Mettler, Model PE3000, SN: F69474) and injected intravenously injected with 2 ml/kg Evans Blue. The animals were dosed orally with 0.5 ml/kg, 1 ml/kg, 2; ml/kg or 4 ml/kg tranilast, or 4 ml/kg vehicle.
Thirty minutes after test material administration, the rats were anesthetized and five groups (2-6) were injected into the air pouch with 15 ml MSU using a 19 G×2 inch needle fitted to a 20 ml syringe. Group 1 was injected with 15 ml saline. The rats were returned to their cages, no adverse affects were observed.
Four hours after MSU/saline injection, the rats were anesthetized and 5 ml 10 U/ml heparinized saline was injected into the air pouch. The air pouch was gently massaged, the contents immediately removed using a 14 G×1 inch needle fitted to a 6 ml syringe, and the exudate volume recorded. An aliquot of the exudate was transferred to heparin-treated microtainer tubes (Becton Dickinson, Cat. 365958, lot 9140110, expo July 2010) for white blood cell (WBC) counting. The remainder of the exudate was centrifuged (Hermle Labrotechnik, Model Z200A, SN: 44060036), the supernatants removed and evaluated at OD620nm (Spectronic Unicam, Model 4000 1/4, SN: 3SGD003006) for plasma extravasation.

[1] = 25 mg/kg oral, 30 min before MSU
[2] = 50 mg/kg oral, 30 min before MSU
[3] = 100 mg/kg oral, 30 min before MSU
[4] = 200 mg/kg oral, 30 min before MSU
[5] = highest dose 200 mg/kg oral, 30 min before MSU
[6] = oral, sigmoidal dose-response (variable slope) analysis

For `COc1ccc(/C=C/C(=O)Nc2ccccc2C(=O)O)cc1OC` [Tranilast, 2-[[3-(3,4-dimethoxyphenyl)-1-oxo-2-propenyl]amino]benzoic acid], the “Average Exudate Volume, Mean” value [1] was 6.5 mL, the “Average Plasma Extravasation, OD620 nm, Mean” value (shortened to “Average Plasma Extravasation”) [1] was 1.431 and the “Total WBC in Sample, Mean” value [1] was 20550000. The “WBC in exudate, Mean” value [1] was 3196000 cells/ml, the “Average Exudate Volume, Mean” value [2] was 8.6 mL and the “Average Plasma Extravasation” value [2] was 1.048. The “Total WBC in Sample, Mean” value [2] was 12476000, the “WBC in exudate, Mean” value [2] was 1557000 cells/ml and the “Average Exudate Volume, Mean” value [3] was 8.0 mL. The “Average Plasma Extravasation” value [3] was 0.939, the “Total WBC in Sample, Mean” value [3] was 10629600 and the “WBC in exudate, Mean” value [3] was 1566000 cells/ml. The “Average Exudate Volume, Mean” value [4] was 3.2 mL, the “Average Plasma Extravasation” value [4] was 0.819 and the “Total WBC in Sample, Mean” value [4] was 10305200. The “WBC in exudate, Mean” value [4] was 3516000 cells/ml, the “inhibition of plasma extravasation” value [5] was 42% and the “inhibition of white blood cell infiltration” value [5] was 80%. For the same compound, the “effect on MSU-induced parameters (plasma extravasation, leukocyte infiltration)” value (oral 25-200 mg/kg, 30 min before MSU) was “dose-dependent inhibition”, the “IC50 effect on plasma extravasation” value [6] was 45 mg/kg and the “IC50 effect on white blood cell infiltration” value [6] was 16 mg/kg.
